Assay results from patent publication US20140243415A1, “COMPOUNDS INHIBITING GALECTIN-1 EXPRESSION, CANCER CELL PROLIFERATION, INVASION, AND TUMORIGENESIS” (ONCOETHIX SA, priority 2011, published 2014).

What was measured:
SQ20B cells [1] = test: Matrigel invasion assay; format: cell-based, human; conditions: for invasion of SQ20B cells, agent alone: 48 h, 1 g/ml galectin-1, 1 μg/ml semaphorin-3A, 10 μM UO126, 3 μM OTX-008
Experimental: (§1) FIG. 5. Modulation of the galectin-1/semaphorin-3A/neuropilin system in SQ20B cells. A—Effects of galectin-1 (Gall), semaphorin-3A (Sema3A), lactose, with or without four different concentrations of OTX-008 on SQ20B growth at day 6. Embedded figure: Proliferation assay of SQ20B and SQ-shGAL1. B—In vitro matrigel invasion assay of SQ20B exposed to […] galectin-1, 1 μg/ml semaphorin-3A, 200 ng/ml lactose or 10 μM UO126 with or without 3 μM OTX-008. Embedded figure: In vitro matrigel invasion assay of SQ20B and SQ-shGAL1. Invasion was quantified after 48 h by counting the average number of invaded cells.
8 μm membranes were coated with Matrigel (50 μg). The inserts were placed within a 24-well chamber containing 0.6 ml of RPMI 1640 medium with 20% fetal bovine serum as chemoattractant. 10^5 cells were seeded into the inserts suspended in 0.3 ml of serum-free RPMI. After incubation for 48 h at 37° C., the upper surface of the filter was scraped to remove non-invasive cells. Invasive cells were fixed and stained with a Diff Quik detection Kit (Dade Behring, Paris, France). For quantification, the average number of invading cells per field was assessed by counting 9 random fields under a light microscope (400×).
(§2) Galectin-1 may form extracellular lattices counteracting the inhibitory properties of semaphorin-3A on neuropilin-1, eventually leading to the modulation of the vascular endothelial growth factor (VEGFR) and platelet derived growth factor (PDGFR) receptors, fibronectin, and laminin activity SQ20B cells expressed significant mRNA and protein levels of semaphorin-3A and neuropilin-1, PDGFRa&(, VEGF A-D, and VEGFR1-3 (Supplementary FIG. 2A). Thus, SQ20B cells were selected to evaluate the effects of OTX-008 on galectin-1/semaphorin-3A interactions. No difference between SQ20B cells growing in plastic or fibronectin- and laminin-coated plates. […] Galectin-1 and semaphorin-3A induced invasion was inhibited by OTX-008 mimicking the effects of lactose in this model.

cdc2 (tyrosine 15) = test: Western blot of phosphorylated cdc2 in SQ20B; format: cell-based, human; conditions: pretreated 2 h with UO126 then OTX-008 72 hours
Experimental: Cells were lysed in buffer containing 50 mM HEPES (pH 7.6), 150 mM NaCl, 1% Triton X-100, 2 mM sodium vanadate, 100 mM NaF, and 0.4 mg/ml phenylmethylsulfonyl fluoride. Equal amounts of protein (30 μg/lane) were subjected to SDS-PAGE and transferred to nitrocellulose membranes. Membranes were blocked with 5% milk in 0.05% Tween 20/phosphate-buffered saline and then incubated with the primary antibody overnight. Membranes were then washed and incubated with the secondary antibody conjugated to horseradish peroxidase. Bands were visualized by using the enhanced chemiluminescence Western blotting detection system. Densitometric analysis was performed under conditions that yielded a linear response. The following antibodies were used: anti-p-cdc2 (tyr15), anti-p-wee1 (ser642), anti-p-p44/42 MAPK (thr202/tyr204), anti-p44/42, anti-p-AKT (ser473), anti-AKT, anti-p-S6 (ser235/236) (Cell Signaling, Saint Quentin Yvelines, France), anti-p-PKCα (ser657) (BD Biosciences, Le-Pont-de-Claix, France) and anti-galectin-1 (Abcam, Cambridge, Mass., USA). All antibodies were used at a 1:1000 dilution.
To study the mechanism of OTX-008-induced inhibition of cell proliferation, the effect of OTX-008 on cell cycle in SQ20B cells was examined (FIG. 5B). […] Activation of cdc2 (cdk1) by de-phosphorylation of tyrosine 15 is required for G2/M transition. […]

SQ20B cells [2] = test: In vitro growth inhibition assay; format: cell-based, human; conditions: growth at day 6
Experimental: as §1
For proliferation assay, cells were seeded in 96-well tissue culture plates at a density of 1.5×10^3 cells/well. MTT assay was conducted daily to determine the number of viable cells in untreated control and treated group. Growth inhibition curves were plotted as a percentage of cells for each experimental condition.
as §2

B16 melanoma = conditions: syngeneic mouse B16 melanoma model; cited from earlier work
[3] = system: panel of human cancer cell lines; test: MTT cell cytotoxicity assay, cell line panel; format: cell-based; conditions: cultured cancer cells
Experimental: Cell survival was determined using the MTT assay (3-[4,5-dimethylthiazol-2-yl]-2,5-diphenyltetrazolium bromide; Sigma, Saint-Quentin Fallavier, France). The conversion of yellow water-soluble tetrazolium MTT into purple insoluble formazan is catalyzed by mitochondrial dehydrogenases and used to estimate the number of viable cells. In brief, cells were seeded in 96-well tissue culture plates at a density of 2×10^3 cells/well. After 72 h drug exposure and 48 h wash-out, cells were incubated with 0.4 mg/ml MTT for 4 hours at 37° C. After incubation, the supernatant was discarded, insoluble formazan precipitates were dissolved in 0.1 ml of DMSO and the absorbance was measured at 560 nm by use of a microplate reader (Thermo, France). […] IC50's were determined as the halves of maximal inhibitory drug concentration for each cell line.
The antiproliferative effects of OTX-008 and anginex were assessed using MTT assay in a panel of human cancer cell lines of human origins expressing various levels of Lgals-1 mRNA and galectin-1 protein expressions (Supplementary Table 1). […] No correlation between mRNA expressions of galectin-2, galectin-3, and galectin-8 as well as semaphorin-3A, semaphorin-3B, neuropilin-1, VEGFR1-3, VEGFA-D, and PDGFRa&P3 and sensitivity to OTX-008 were detected in the panel.

[4] = system: human ovarian carcinoma MA148 xenografts; conditions: cited from earlier work
galectin-1 = biological target: T1, galectin-1 (Homo sapiens, UniProt P09382); test: Western blot of galectin-1 in SQ20B cells; format: cell-based; conditions: Bortezomib 10 nM with 3 μM OTX-008, 48 h
T1 construct: Western Blot of galectin-1 on SQ20B cells treated with 3 μM OTX-008 for 24 h, 48 h and 72 h; endogenous in cells; host or cells: SQ20B (ATCC)
T1 sequence (P09382 whole entry): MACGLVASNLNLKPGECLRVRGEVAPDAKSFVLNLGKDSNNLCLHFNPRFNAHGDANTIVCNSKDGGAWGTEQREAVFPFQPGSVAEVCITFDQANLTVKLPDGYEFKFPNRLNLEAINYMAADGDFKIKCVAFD
Experimental: FIG. 3. Effects of OTX-008 on galectin-1 expression and localization. A—Western Blot of galectin-1 on SQ20B cells treated with 3 μM OTX-008 for 24 h, 48 h and 72 h. B and C—Immunofluorescence of galectin-1 on SQ20B cells treated with 3 μM OTX-008 for 24 and 48 h. B—OTX-008 treatment decreases galectin-1 immunostaining in SQ20B cells. C—Galectin-1 translocates into the nucleus after OTX-008 exposure. D—Western Blot of p-AKTser473, AKT, p-S6, p-ERK1/2, ERK and p-PKCα in SQ20B cells treated with 3 μM OTX-008 for 10 min, 1 h, 2 h, 5 h and 24 h.
FIG. 4. OTX-008-induced galectin-1 oxydation and degradation by the proteosome system A—Western Blot of galectin-1 on SQ20B cells treated 48 h with 10 μM N-acetylcysteine (NAC), 55 μM β-mercaptoethanol (βME), 1 mM Tempol and 10 μM co-enzyme Q10 (Q10) with or without 3 μM OTX-008. B—Western Blot of galectin-1 on SQ20B cells treated 48 h with 3 μM OTX-008, pretreated 2 h with proteasome inhibitor Bortezomib (10 nM) and then treated 48 h with 3 μM OTX-008 (BTZ—OTX-008) or treated 48 h with 10 nM Bortezomib+3 μM OTX-008 (BTZ+OTX-008).
Cells were lysed in buffer containing 50 mM HEPES (pH 7.6), 150 mM NaCl, 1% Triton X-100, 2 mM sodium vanadate, 100 mM NaF, and 0.4 mg/ml phenylmethylsulfonyl fluoride. Equal amounts of protein (30 μg/lane) were subjected to SDS-PAGE and transferred to nitrocellulose membranes. […]

## N#CC(=C(/N)Sc1ccccc1N)/C(C#N)=C(/N)Sc1ccccc1N [UO126, reference compound]
SQ20B cells [1]
  invasion of SQ20B cells, agent alone: neither impact cellular invasion alone
cdc2 (tyrosine 15)
  OTX-008-mediated cdc2 phosphorylation after UO126 pretreatment: inhibited the increase of cdc2 phosphorylation

## galectin-1: Recombinant galectin-1 purchased from R&D Systems
SQ20B cells [1]
  invasion of SQ20B cells, agent alone: enhance invasion
SQ20B cells [2]
  SQ20B cell proliferation, exogenous agent alone: had not effects

## anginex
B16 melanoma
  antitumor activity: antitumor activity
[3]
  antiproliferative effects (MTT): limited effects
[4]
  antitumor activity: antitumor activity

## OC[C@H]1O[C@@H](O[C@H]2[C@H](O)[C@@H](O)C(O)O[C@@H]2CO)[C@H](O)[C@@H](O)[C@H]1O (stereo partly drawn) [lactose, reference compound]
SQ20B cells [1]; SQ20B, 200 ng/ml lactose with 3 μM OTX-008
  invasion, lactose combined with OTX-008: prevents the inhibition of invasion induced by OTX-008
SQ20B cells [2]
  SQ20B cell proliferation, exogenous agent alone: significant inhibition of cellular proliferation

## CC(C)C[C@H](NC(=O)[C@H](Cc1ccccc1)NC(=O)c1cnccn1)B(O)O [bortezomib, reference compound]
galectin-1
  effect of proteasome inhibition on OTX-008-induced galectin-1 decrease: counteracts the inhibitory effects of OTX-008 on galectin-1 expression

B1: semaphorin-3A: Recombinant semaphorin-3A purchased from R&D Systems (protein, UniProt Q14563 21-771, looked up)
Semaphorin-3A: NYQNGKNNVPRLKLSYKEMLESNNVITFNGLANSSSYHTFLLDEERSRLYVGAKDHIFSFDLVNIKDFQKIVWPVSYTRRDECKWAGKDILKECANFIKVLKAYNQTHLYACGTGAFHPICTYIEIGHHPEDNIFKLENSHFENGRGKSPYDPKLLTASLLIDGELYSGTAADFMGRDFAIFRTLGHHHPIRTEQHDSRWLNDPKFISAHLISESDNPEDDKVYFFFRENAIDGEHSGKATHARIGQICKNDFGGHRSLVNKWTTFLKARLICSVPGPNGIDTHFDELQDVFLMNFKDPKNPVVYGVFTTSSNIFKGSAVCMYSMSDVRRVFLGPYAHRDGPNYQWVPYQGRVPYPRPGTCPSKTFGGFDSTKDLPDDVITFARSHPAMYNPVFPMNNRPIVIKTDVNYQFTQIVVDRVDAEDGQYDVMFIGTDVGTVLKVVSIPKETWYDLEEVLLEEMTVFREPTAISAMELSTKQQQLYIGSTAGVAQLPLHRCDIYGKACAECCLARDPYCAWDGSACSRYFPTAKRRTRRQDIRNGDPLTHCSDLHHDNHHGHSPEERIIYGVENSSTFLECSPKSQRALVYWQFQRRNEERKEEIRVDDHIIRTDQGLLLRSLQQKDSGNYLCHAVEHGFIQTLLKVTLEVIDTEHLEELLHKDDDGDGSKTKEMSNSMTPSQKVWYRDFMQLINHPNLNTMDEFCEQVWKRDRKQRRQRPGHTPGNSNKWKHLQENKKGRNRRTHEFERAPRSV
SQ20B cells [1]
  invasion of SQ20B cells, agent alone: enhance invasion
SQ20B cells [2]
  SQ20B cell proliferation, exogenous agent alone: concentration-dependent inhibition of cellular proliferation
